Assay results reported in article PMC5028780, “Receptor and transporter binding and activity profiles of albiflorin extracted from Radix paeoniae Alba” (Scientific Reports, 2016).

Assays:
D3 = target: T1, D3 (Homo sapiens, UniProt P35462); test: CNS receptor binding, dopamine D3; conditions: CHO cell lines, [3H]-spiperone(1), read-out: IC50 values for albiflorin
T1 construct: expressed in transfected cells; host or cells: CHO cell lines
Description: (§1) Albiflorin (10 μM) was tested for numerous other potential binding targets by using standard receptor binding procedures. The tested targets included the following receptors: D1, D2, D3, D4, D5, 5-HT1A, 5-HT1B, 5-HT1D, 5-HT2a, 5-HT2C, 5-HT3, 5-HT5A, 5-HT6, 5-HT7, α1A, α1B, α2A, β1, M1, M2, M3, M4, M5, μ, κ, δ, A1, A2A, H1, H2, H3, H4.

rat SERT = target: T2, rat SERT (Rattus norvegicus, UniProt P31652); test: Rat monoamine transporter binding assay, SERT; conditions: [3H]-citalopram, Cerebral cortex
T2 construct: from tissue; host or cells: Sprague-Dawley rat cerebral cortex membranes
Description: Male Sprague–Dawley rats were killed by cervical dislocation, and their brains were rapidly removed and then dissected on ice. The cerebral cortex, hypothalamus and striatum were homogenised in 4 mL of assay buffer (50 mM Tris–HCl buffer, pH 7.4.) and centrifuged at 40,000× g for 10 min at 4 °C. The pellets were centrifuged twice at 20,000× g and then resuspended in 4 mL of assay buffer. […] Bio-Rad protein assay reagents (1:5 ratio) were used to analyse the protein concentration of the synaptosomal suspension.
All data for inhibition curves were analysed by nonlinear regression using Prism software (GraphPad Software Inc., San Diego, CA) to determine IC50 values. For the microdialysis experiments, two-way repeated-measures ANOVA followed by Tukey’s test was used to compare the percentage increase over baseline between groups, time and treatment as independent factors, and time as the repeated factor.

D5 = D5 (Homo sapiens, UniProt P21918); test: CNS receptor binding, dopamine D5; conditions: HEK293 cell line, [3H]-SCH23390(1)
Description: as §1

H4 = H4 (Homo sapiens, UniProt Q9H3N8); test: CNS receptor binding, histamine H4; conditions: CHO cell line, [3H]-histamine(1)
Description: as §1

M5 = M5 (Homo sapiens, UniProt P08912); test: CNS receptor binding, muscarinic M5; conditions: CHO cell line, [3H]-NMS(1)
Description: as §1

5-HT1A = 5-HT1A (Homo sapiens, UniProt P08908); test: CNS receptor binding, 5-HT1A; conditions: HEK293 cell line, [3H]-8-OH-DPAT(2)
Description: as §1

M2 = M2 (Homo sapiens, UniProt P08172); test: CNS receptor binding, muscarinic M2; conditions: HEK293 cell line, [3H]-NMS(1)
Description: as §1

5-HT2C = 5-HT2C (Homo sapiens, UniProt P28335); test: CNS receptor binding, 5-HT2C; conditions: CHO cell lines, [3H]-mesulergine(1)
Description: as §1

M3 = M3 (Homo sapiens, UniProt P20309); test: CNS receptor binding, muscarinic M3; conditions: CHO cell line, [3H]-NMS(1)
Description: as §1

[1] = read-out: IC50 values for albiflorin

Chain of H4 (Q9H3N8 whole entry): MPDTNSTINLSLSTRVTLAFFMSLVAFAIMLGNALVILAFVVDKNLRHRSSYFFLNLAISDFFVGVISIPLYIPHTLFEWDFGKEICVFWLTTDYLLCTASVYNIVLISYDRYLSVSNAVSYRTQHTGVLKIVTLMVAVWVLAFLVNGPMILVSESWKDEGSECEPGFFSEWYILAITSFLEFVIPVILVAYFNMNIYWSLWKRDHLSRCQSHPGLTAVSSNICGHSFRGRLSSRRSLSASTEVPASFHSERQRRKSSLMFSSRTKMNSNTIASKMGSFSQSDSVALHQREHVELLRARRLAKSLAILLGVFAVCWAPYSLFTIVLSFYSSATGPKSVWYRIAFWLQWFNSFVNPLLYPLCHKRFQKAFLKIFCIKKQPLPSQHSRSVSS
Chain of M5 (P08912 whole entry): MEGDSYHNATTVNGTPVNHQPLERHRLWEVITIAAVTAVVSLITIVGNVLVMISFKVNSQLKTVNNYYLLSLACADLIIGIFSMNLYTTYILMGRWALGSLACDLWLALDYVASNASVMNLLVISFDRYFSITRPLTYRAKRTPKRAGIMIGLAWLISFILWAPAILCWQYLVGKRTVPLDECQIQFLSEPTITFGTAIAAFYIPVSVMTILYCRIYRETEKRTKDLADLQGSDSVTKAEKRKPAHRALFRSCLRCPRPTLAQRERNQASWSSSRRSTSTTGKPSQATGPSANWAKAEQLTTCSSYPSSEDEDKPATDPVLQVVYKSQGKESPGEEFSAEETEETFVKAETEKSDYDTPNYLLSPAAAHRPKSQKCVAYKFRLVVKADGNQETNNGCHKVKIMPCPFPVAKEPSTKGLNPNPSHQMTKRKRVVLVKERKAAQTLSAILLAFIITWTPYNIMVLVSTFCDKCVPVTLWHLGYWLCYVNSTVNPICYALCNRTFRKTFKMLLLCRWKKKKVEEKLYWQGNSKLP
Chain of M3 (P20309 whole entry): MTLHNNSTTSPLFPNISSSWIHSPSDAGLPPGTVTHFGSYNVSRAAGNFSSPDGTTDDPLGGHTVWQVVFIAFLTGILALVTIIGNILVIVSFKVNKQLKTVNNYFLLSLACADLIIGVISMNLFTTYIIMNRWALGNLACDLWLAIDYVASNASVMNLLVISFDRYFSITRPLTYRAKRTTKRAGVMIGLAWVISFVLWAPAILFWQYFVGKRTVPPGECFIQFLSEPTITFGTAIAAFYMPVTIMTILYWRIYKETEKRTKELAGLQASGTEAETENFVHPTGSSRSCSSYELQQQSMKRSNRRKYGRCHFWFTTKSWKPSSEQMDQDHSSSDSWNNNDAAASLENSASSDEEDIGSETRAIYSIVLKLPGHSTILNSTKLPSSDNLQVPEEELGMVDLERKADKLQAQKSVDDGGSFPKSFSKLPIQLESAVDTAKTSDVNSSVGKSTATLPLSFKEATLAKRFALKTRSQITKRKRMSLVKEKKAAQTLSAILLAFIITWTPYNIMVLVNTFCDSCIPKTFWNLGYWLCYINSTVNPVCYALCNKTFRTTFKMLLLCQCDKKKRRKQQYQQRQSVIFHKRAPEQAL
Chain of M2 (P08172 whole entry): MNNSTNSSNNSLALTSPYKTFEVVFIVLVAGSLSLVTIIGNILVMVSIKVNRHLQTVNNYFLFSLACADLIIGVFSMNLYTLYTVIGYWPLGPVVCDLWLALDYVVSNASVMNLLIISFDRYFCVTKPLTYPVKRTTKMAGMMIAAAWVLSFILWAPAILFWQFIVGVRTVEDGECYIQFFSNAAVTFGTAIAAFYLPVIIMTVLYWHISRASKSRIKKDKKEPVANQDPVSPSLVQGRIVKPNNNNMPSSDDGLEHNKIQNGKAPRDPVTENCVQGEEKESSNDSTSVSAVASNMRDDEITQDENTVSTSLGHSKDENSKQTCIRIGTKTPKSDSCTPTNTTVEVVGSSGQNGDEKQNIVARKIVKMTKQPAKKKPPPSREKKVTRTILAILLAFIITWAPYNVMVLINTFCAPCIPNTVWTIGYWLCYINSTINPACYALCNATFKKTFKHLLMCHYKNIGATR
Chain of 5-HT1A (P08908 whole entry): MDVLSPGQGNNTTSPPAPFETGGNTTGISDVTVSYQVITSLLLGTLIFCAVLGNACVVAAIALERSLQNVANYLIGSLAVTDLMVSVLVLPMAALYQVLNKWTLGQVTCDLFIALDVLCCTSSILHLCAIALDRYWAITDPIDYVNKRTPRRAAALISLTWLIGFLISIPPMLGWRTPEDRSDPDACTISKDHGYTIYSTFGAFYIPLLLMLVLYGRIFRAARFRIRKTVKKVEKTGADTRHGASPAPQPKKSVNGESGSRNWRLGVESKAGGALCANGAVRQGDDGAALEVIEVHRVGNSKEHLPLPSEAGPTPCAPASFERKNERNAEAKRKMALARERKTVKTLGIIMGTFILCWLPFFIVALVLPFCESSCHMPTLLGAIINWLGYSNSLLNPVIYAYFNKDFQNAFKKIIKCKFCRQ
Chain of D5 (P21918 whole entry): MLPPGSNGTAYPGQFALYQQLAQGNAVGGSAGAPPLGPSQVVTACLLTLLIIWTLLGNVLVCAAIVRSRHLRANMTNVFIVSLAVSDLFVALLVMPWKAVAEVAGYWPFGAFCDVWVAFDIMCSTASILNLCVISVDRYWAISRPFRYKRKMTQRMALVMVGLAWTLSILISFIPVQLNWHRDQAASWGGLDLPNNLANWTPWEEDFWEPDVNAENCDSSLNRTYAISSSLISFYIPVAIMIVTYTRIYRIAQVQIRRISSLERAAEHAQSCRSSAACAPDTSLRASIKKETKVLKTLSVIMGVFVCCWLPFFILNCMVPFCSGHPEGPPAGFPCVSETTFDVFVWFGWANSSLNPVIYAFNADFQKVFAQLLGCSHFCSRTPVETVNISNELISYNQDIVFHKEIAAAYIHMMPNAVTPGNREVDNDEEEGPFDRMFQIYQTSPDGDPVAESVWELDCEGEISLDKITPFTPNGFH
Chain of 5-HT2C (P28335 33-458): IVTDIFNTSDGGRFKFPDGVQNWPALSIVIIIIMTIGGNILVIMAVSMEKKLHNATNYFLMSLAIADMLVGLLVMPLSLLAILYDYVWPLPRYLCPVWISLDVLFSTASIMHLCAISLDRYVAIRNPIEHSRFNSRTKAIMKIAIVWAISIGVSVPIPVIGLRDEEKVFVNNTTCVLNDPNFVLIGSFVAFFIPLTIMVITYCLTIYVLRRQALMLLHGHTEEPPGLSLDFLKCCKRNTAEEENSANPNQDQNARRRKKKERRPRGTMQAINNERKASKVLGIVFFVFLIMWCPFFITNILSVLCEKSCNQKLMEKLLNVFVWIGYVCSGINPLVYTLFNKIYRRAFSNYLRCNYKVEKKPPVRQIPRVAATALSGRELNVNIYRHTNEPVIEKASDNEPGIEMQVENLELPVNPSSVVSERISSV
T1 sequence (P35462 whole entry): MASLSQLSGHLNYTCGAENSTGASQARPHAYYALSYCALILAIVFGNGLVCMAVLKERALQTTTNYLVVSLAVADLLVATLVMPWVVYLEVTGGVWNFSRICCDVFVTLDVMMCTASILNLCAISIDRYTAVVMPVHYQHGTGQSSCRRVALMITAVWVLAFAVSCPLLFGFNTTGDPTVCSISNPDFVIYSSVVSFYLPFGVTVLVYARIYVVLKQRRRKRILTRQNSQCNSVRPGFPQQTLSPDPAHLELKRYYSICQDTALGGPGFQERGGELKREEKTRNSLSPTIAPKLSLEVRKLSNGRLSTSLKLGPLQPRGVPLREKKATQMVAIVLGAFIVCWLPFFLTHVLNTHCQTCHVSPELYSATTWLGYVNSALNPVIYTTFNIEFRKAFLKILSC
T2 sequence (P31652 whole entry): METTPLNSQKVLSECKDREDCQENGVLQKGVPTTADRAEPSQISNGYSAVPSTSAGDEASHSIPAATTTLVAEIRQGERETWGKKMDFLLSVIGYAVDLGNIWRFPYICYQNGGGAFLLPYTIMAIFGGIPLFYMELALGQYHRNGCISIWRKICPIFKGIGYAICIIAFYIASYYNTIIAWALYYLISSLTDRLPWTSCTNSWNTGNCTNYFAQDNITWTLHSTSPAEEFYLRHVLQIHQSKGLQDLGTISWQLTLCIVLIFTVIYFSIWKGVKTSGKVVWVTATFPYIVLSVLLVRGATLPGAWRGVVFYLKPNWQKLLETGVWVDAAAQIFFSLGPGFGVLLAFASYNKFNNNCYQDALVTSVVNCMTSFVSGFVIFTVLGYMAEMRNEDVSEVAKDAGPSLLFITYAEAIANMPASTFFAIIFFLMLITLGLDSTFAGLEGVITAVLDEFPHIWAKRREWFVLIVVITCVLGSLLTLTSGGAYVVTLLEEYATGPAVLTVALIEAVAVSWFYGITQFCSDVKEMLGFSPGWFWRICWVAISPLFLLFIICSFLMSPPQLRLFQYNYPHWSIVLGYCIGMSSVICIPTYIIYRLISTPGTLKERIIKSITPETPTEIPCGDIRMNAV

In the case of `C[C@]12C[C@@H](O)[C@@H]3C[C@@]1(O[C@@H]1O[C@H](CO)[C@@H](O)[C@H](O)[C@H]1O)[C@@]3(COC(=O)c1ccccc1)C(=O)O2` [albiflorin, Albiflorin], the IC50 (D3) is reported as 3.66 ± 0.212 µM, the Ki (rat SERT) is reported as 0.00525 ± 0.00017 µM and the “% Inhibition of binding at 10 μM albiflorin” value (“% Inhibition of binding” below) (D5) is reported as 32.50%. For the same compound, the IC50 (D5; [1]) was over 10 µM, the “% Inhibition of binding” value (H4) was 6.33% and the IC50 (H4; [1]) was over 10 µM. The “% Inhibition of binding” value (M5) was 20.11%, the IC50 (M5; [1]) was over 10 µM and the “% Inhibition of binding” value (5-HT1A) was 69.60%. The IC50 (5-HT1A; [1]) was 4 ± 0.662 µM, the “% Inhibition of binding” value (M2) was 13.33% and the IC50 (M2; [1]) was over 10 µM. The “% Inhibition of binding” value (5-HT2C) was 33.66%, the IC50 (5-HT2C; [1]) was over 10 µM and the “% Inhibition of binding” value (M3) was 25.66%. It also gave an IC50 (M3; [1]) of over 10 µM.
